Measurements from patent US9498759B2, “Compartmentalized screening by microfluidic control” (President and Fellows of Harvard College, priority 2004, dated 2016).
Blank lines part the entries; values can stand above or below the molecule they belong to.

Experiments:
[1] = biological target: T1, E. coli β-galactosidase (LacZ) (Escherichia coli, UniProt P00722); conditions: Huang, 1991, cited from earlier work
[2] = biological target: T1, E. coli β-galactosidase (LacZ); type: biochemical
Description: In the enzyme inhibition assay, the rate of catalysis is determined by using a non-fluorescent substrate for LacZ, fluorescein mono-β-D-galactoside (FMG) (FMG), and measuring the appearance of the fluorescent product, fluorescein (excitation 488 nm, emission 514 nm). All components of the LacZ inhibition assay are dissolved in assay buffer (10 mm MgCl2, 50 mM NaCl, 1 mM DTT, 100 μg/ml BSA, 10 mM Tris-HCl, pH 7.9.
Leading into each droplet forming module (FIG. 15) are two Teflon tubes leading from syringe pumps. The channels leading from each tube merge to create a single flow before entering the droplet forming module. The two syringes feeding into the first droplet forming module contain, (a) 50 μM PETG in assay buffer, and (b), assay buffer. The two syringes feeding into the second droplet forming module contain, (c) 100 nM LacZ in assay buffer and (d), assay buffer. The two syringes feeding into the third droplet forming module contain, (e) 5 mM FMG in assay buffer, and (f), assay buffer. The final concentration of each component in each droplet is independently controllable by adjusting relative flow rates of each component and buffer solution while maintaining a constant combined flow rate from both syringes.
The first droplet fusion mixes the inhibitor (PETG) with the enzyme (LacZ). After the combined droplet has spent two minutes in a delay line it is fused with a third droplet containing the fluorogenic enzyme substrate (FMG). Finally, after all the components are mixed the reaction is observed by measuring fluorescence of individual droplets or by integrating fluorescent light from droplets with the same concentration of each component during 10-second exposure time at multiple points in the second 10 min long delay line. Each fluorescence intensity value at different positions is proportional to the amount of product at different reaction times. Rate of product formation is linear during initial reaction time and initial rate (ν) can be determined from linear fitting. […]

[3] = Compartmentalisation of small molecules in water-in-fluorocarbon emulsions (epifluorescence microscopy); type: physicochemical; conditions: water-in-perfluorooctyl bromide emulsions mixed by vortexing, imaged after 24 hours
Description: FIG. 19. Compartmentalisation of small molecules in water-in-fluorocarbon emulsions. Water-in-perfluorooctyl bromide emulsions were made containing texas red (1 mM) and calcein ([…] in the aqueous phase by homogenisation as described in example 9. The two emulsions were mixed by vortexing and imaged by epifluorescence microscopy after 24 hours. No exchange of texas-red (red fluorescence) and calcein (green fluorescence) between microdroplets could be observed.
Water-in-fluorocarbon emulsions containing 95% (v/v) perfluorooctyl bromide, 5% (v/v) phosphate buffered saline containing the molecule of interest in solution, and 2% (w/v) C8F17C11H22OP(O)[N(CH2CH2)2O]2 (F8H1DMP) as surfactant were formed essentially as (Sadtler et al., 1996) by extrusion (15 times) through 14 μm filters (Osmonics) or by homogenising for 5 min at 25,000 r.p.m. using an Ultra-Turrax T8 Homogenizer (IKA) with a 5 mm dispersing tool. Emulsions were made containing a series of small fluorescent molecules dissolved in the aqueous phase at concentrations from […] to 2 mM. These molecules, including calcein, texas red, fluorescein, coumarin 102, 7-hydroxycoumarin-3-carboxylic acid and 7-diethylamino-4-methyl coumarin (coumarin 1), had molecular weights from 203 to 625 Da and Log P values—calculated using SRC's Log Kow/KowWin Program (Meylan and Howard, 1995)—ranging from −0.49 to 4.09. […]

[4] = biological target: T2, human recombinant PTP1B, residues 1-322 (Homo sapiens, UniProt P18031); assay: Screening for PTP1B inhibitors using microcapsules in a microfluidic system (DiFMUP fluorescence); type: biochemical; conditions: 100 μM compound solution, PTP1B 50 mU/ml, substrate DiFMUP, excitation/emission 358/452 nm
T2 construct: human recombinant PTP1B, residues 1-322; purchased Biomol Research Laboratories, Inc
T2 sequence (P18031 1-322): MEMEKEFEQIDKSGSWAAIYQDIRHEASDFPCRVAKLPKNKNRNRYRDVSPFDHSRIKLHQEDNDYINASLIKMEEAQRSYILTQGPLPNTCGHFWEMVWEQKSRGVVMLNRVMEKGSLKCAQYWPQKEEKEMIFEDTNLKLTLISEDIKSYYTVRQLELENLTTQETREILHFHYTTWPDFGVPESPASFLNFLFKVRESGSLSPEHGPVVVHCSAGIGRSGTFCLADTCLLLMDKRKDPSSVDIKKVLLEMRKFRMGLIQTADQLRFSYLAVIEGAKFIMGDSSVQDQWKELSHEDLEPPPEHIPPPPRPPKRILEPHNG
Description: All water-soluble reagents are dissolved in (25 mM HEPES, pH 7.4, 125 mM NaCl, 1 mM EDTA), a buffer compatible with PTP1B activity. […] Each microcapsule containing target enzyme is fused with a microcapsule containing compound 2 or a microcapsule containing hydrocinnamic acid. Microcapsules containing either compound 2 or hydrocinnamic acid can be formed by switching between injection with syringes containing compound 2 and hydrocinnamic acid.
After microcapsule fusion the contents are rapidly mixed. After this point the microcapsules are run for up to 1 min through a 60 cm long microchannel (to allow inhibitor binding). This microchannel is then merged with a second microchannel containing, aqueous microcapsules containing the fluorogenic PTP1B substrate 6,8-difluoro-4-methylumbelliferyl phosphate (DiFMUP) (Molecular Probes) in 25 mM HEPES, pH 7.4, 125 mM NaCl, 1 mM EDTA and the microcapsules fused pairwise. The fused microcapsules are then run for up to 2 min through a 60 cm long microchannel. Fluorescence of the microcapsules due to production of DiFMU (excitation/emmission maxima 358/452 nm; blue fluorescence) is measured.

[5] = biological target: T3, PTP1B (Homo sapiens, UniProt P18031); conditions: Johnson et al., 2002; cited from earlier work
T3 sequence (P18031 1-435): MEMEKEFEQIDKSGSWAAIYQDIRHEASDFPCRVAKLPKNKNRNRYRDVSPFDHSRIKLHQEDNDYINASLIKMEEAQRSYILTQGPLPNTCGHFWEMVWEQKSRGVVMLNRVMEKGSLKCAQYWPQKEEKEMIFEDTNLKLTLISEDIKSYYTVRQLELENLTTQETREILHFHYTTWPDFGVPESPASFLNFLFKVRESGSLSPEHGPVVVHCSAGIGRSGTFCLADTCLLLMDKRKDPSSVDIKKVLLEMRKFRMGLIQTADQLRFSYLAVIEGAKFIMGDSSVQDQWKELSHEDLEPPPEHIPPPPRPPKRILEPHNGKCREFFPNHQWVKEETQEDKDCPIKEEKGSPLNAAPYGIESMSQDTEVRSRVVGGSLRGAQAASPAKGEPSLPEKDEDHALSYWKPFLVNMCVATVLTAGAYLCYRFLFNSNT

[6] = 30 nM LacZ, 0 to 13 μM PETG, 10 to 700 μM FMG

T1 sequence (P00722 2-1024): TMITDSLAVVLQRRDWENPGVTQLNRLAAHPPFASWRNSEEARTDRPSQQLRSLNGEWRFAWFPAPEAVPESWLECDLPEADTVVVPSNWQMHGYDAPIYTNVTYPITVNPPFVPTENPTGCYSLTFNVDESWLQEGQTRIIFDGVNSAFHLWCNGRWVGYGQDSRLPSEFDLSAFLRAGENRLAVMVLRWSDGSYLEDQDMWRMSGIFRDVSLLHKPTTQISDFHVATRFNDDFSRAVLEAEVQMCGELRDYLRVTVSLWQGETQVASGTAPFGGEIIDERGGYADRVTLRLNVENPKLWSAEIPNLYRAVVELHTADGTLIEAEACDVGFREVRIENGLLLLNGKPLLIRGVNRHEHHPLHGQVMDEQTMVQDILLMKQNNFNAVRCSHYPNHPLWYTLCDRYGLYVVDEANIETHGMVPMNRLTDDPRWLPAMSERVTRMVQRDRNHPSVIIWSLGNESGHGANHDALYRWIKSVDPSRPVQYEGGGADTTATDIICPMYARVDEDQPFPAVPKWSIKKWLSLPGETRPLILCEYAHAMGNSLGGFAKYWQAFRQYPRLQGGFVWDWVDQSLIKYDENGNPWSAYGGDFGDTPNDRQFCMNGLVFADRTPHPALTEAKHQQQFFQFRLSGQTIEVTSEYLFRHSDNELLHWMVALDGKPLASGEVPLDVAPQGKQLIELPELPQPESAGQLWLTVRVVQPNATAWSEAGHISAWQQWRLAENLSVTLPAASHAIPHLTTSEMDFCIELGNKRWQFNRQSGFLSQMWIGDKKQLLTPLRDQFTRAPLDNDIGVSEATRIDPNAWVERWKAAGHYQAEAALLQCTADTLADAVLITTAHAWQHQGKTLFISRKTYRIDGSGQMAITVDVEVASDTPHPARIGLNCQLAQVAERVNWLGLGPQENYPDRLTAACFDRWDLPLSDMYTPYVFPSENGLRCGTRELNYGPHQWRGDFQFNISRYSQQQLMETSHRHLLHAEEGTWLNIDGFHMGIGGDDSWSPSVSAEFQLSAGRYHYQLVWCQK

Exchange between microdroplets/compartments [3]: No exchange
Molecule: texas red

Fluorescence of the microcapsules due to production of DiFMU (blue fluorescence) [4]: exhibiting blue fluorescence
Molecule: O=C(O)CCc1ccccc1 [hydrocinnamic acid]
PTP1B inhibitor status / relative potency [5]: not a PTP1B inhibitor

Continued, molecule first:

Molecule: O=C1OC2(c3ccc(O)cc3Oc3cc(O[C@@H]4O[C@H](CO)[C@H](O)[C@H](O)[C@H]4O)ccc32)c2ccccc21 (stereo partly drawn) [FMG, fluorescein mono-β-D-galactoside]
Km ([1]; read-out: KM of FMG for LacZ, previously published value): 118 µM
KM of FMG for LacZ determined in fused microcapsules, deviation from previously published value [2, 6]: ≤ 20%

Molecule: O=C(O)CN(CC(=O)O)Cc1cc2c(cc1O)Oc1cc(O)c(CN(CC(=O)O)CC(=O)O)cc1C21OC(=O)c2ccccc21 [calcein]
Exchange between microdroplets/compartments [3]: No exchange

Molecule: OCC1OC(SCCc2ccccc2)C(O)C(O)C1O [PETG, phenylethyl β-D-thiogalactopyranoside]
Ki ([1]; read-out: Ki of PETG for LacZ, previously published value): 980 nM
Ki of PETG for LacZ determined in fused microcapsules [2, 6]: within the range of the previously published value
Mode of inhibition ([2]; Lineweaver-Burk plot, same y-intercept at different PETG concentrations): competitive
